Laboratory results reported in PubChem BioAssay (NCI).
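These data come from cells grown in 96-well plates and exposed to compound for 48 hours at five concentrations. At the TGI there is no net growth.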

Assays:
Assay in all cases: inhibition of tumour cell growth, NCI panel, 48 h
SW-620 colon = system: SW-620 colon
SNB-19 CNS = system: SNB-19 CNS
T-47D breast = system: T-47D breast
SF-295 CNS = system: SF-295 CNS
SN12C renal = system: SN12C renal
786-0 renal = system: 786-0 renal
KM12 colon = system: KM12 colon
LOX IMVI melanoma = system: LOX IMVI melanoma
ACHN renal = system: ACHN renal
UACC-257 melanoma = system: UACC-257 melanoma
OVCAR-3 ovarian = system: OVCAR-3 ovarian
CAKI-1 renal = system: CAKI-1 renal
HCT-116 colon = system: HCT-116 colon
NCI-H522 lung = system: NCI-H522 lung
RXF 393 renal = system: RXF 393 renal
SK-OV-3 ovarian = system: SK-OV-3 ovarian
SK-MEL-28 melanoma = system: SK-MEL-28 melanoma
TK-10 renal = system: TK-10 renal
HT29 colon = system: HT29 colon
NCI/ADR-RES ovarian = system: NCI/ADR-RES ovarian
SF-268 CNS = system: SF-268 CNS
HCC-2998 colon = system: HCC-2998 colon
SF-539 CNS = system: SF-539 CNS
UACC-62 melanoma = system: UACC-62 melanoma
SK-MEL-5 melanoma = system: SK-MEL-5 melanoma
OVCAR-4 ovarian = system: OVCAR-4 ovarian
A549 NSCLC = system: A549 NSCLC
MDA-N = system: MDA-N
MDA-MB-435 = system: MDA-MB-435
HOP-62 NSCLC = system: HOP-62 NSCLC
SR leukemia = system: SR leukemia
OVCAR-8 ovarian = system: OVCAR-8 ovarian
OVCAR-5 ovarian = system: OVCAR-5 ovarian
MOLT-4 leukemia = system: MOLT-4 leukemia
MCF7 breast = system: MCF7 breast
A498 renal = system: A498 renal
MALME-3M melanoma = system: MALME-3M melanoma
BT-549 breast = system: BT-549 breast
NCI-H23 lung = system: NCI-H23 lung
K-562 leukemia = system: K-562 leukemia
EKVX NSCLC = system: EKVX NSCLC
DU-145 prostate = system: DU-145 prostate
UO-31 renal = system: UO-31 renal
NCI-H460 lung = system: NCI-H460 lung
M14 melanoma = system: M14 melanoma
HCT-15 colon = system: HCT-15 colon
RPMI-8226 leukemia = system: RPMI-8226 leukemia
HL-60(TB) leukemia = system: HL-60(TB) leukemia
COLO 205 colon = system: COLO 205 colon
HS 578T breast = system: HS 578T breast
HOP-92 NSCLC = system: HOP-92 NSCLC
NCI-H226 lung = system: NCI-H226 lung
CCRF-CEM leukemia = system: CCRF-CEM leukemia
U251 CNS = system: U251 CNS
SNB-75 CNS = system: SNB-75 CNS
SK-MEL-2 melanoma = system: SK-MEL-2 melanoma
IGROV1 ovarian = system: IGROV1 ovarian
PC-3 prostate = system: PC-3 prostate
MDA-MB-231 breast = system: MDA-MB-231 breast

## COc1cc(/C=C2/SC(c3ccccc3)N(c3cccc(NC(C)=O)c3)C2=O)cc(OC)c1OC (centres undefined)
SW-620 colon
  TGI: > 100 µM
SNB-19 CNS
  TGI: > 100 µM
T-47D breast
  TGI: > 100 µM
SF-295 CNS
  TGI: > 100 µM
SN12C renal
  TGI: > 100 µM
786-0 renal
  TGI: > 100 µM
KM12 colon
  TGI: > 100 µM
LOX IMVI melanoma
  TGI: > 100 µM
ACHN renal
  TGI: > 100 µM
UACC-257 melanoma
  TGI: > 100 µM
OVCAR-3 ovarian
  TGI: > 100 µM
CAKI-1 renal
  TGI: > 100 µM
HCT-116 colon
  TGI: > 100 µM
NCI-H522 lung
  TGI: 73.6 µM
RXF 393 renal
  TGI: > 100 µM
SK-OV-3 ovarian
  TGI: > 100 µM
SK-MEL-28 melanoma
  TGI: > 100 µM
TK-10 renal
  TGI: > 100 µM
HT29 colon
  TGI: > 100 µM
NCI/ADR-RES ovarian
  TGI: > 100 µM
SF-268 CNS
  TGI: > 100 µM
HCC-2998 colon
  TGI: > 100 µM
SF-539 CNS
  TGI: > 100 µM
UACC-62 melanoma
  TGI: > 100 µM
SK-MEL-5 melanoma
  TGI: > 100 µM
OVCAR-4 ovarian
  TGI: > 100 µM
A549 NSCLC
  TGI: > 100 µM
MDA-N
  TGI: > 100 µM
MDA-MB-435
  TGI: > 100 µM
HOP-62 NSCLC
  TGI: > 100 µM
SR leukemia
  TGI: > 100 µM
OVCAR-8 ovarian
  TGI: > 100 µM
OVCAR-5 ovarian
  TGI: > 100 µM
MOLT-4 leukemia
  TGI: > 100 µM
MCF7 breast
  TGI: > 100 µM
A498 renal
  TGI: > 100 µM
MALME-3M melanoma
  TGI: > 100 µM
BT-549 breast
  TGI: > 100 µM
NCI-H23 lung
  TGI: > 100 µM
K-562 leukemia
  TGI: > 100 µM
EKVX NSCLC
  TGI: > 100 µM
DU-145 prostate
  TGI: > 100 µM
UO-31 renal
  TGI: > 100 µM
NCI-H460 lung
  TGI: > 100 µM
M14 melanoma
  TGI: > 100 µM
HCT-15 colon
  TGI: > 100 µM
RPMI-8226 leukemia
  TGI: > 100 µM
HL-60(TB) leukemia
  TGI: > 100 µM
COLO 205 colon
  TGI: > 100 µM
HS 578T breast
  TGI: > 100 µM
HOP-92 NSCLC
  TGI: > 100 µM
NCI-H226 lung
  TGI: > 100 µM

## Cc1cc(C#N)c[n+](C)c1
SW-620 colon
  TGI: > 100 µM
SNB-19 CNS
  TGI: > 100 µM
T-47D breast
  TGI: > 100 µM
CCRF-CEM leukemia
  TGI: > 100 µM
SF-295 CNS
  TGI: > 100 µM
SN12C renal
  TGI: > 100 µM
786-0 renal
  TGI: > 100 µM
KM12 colon
  TGI: > 100 µM
ACHN renal
  TGI: > 100 µM
UACC-257 melanoma
  TGI: > 100 µM
OVCAR-3 ovarian
  TGI: > 100 µM
CAKI-1 renal
  TGI: > 100 µM
HCT-116 colon
  TGI: > 100 µM
NCI-H522 lung
  TGI: > 100 µM
RXF 393 renal
  TGI: > 100 µM
SK-OV-3 ovarian
  TGI: > 100 µM
SK-MEL-28 melanoma
  TGI: > 100 µM
TK-10 renal
  TGI: > 100 µM
HT29 colon
  TGI: > 100 µM
NCI/ADR-RES ovarian
  TGI: > 100 µM
U251 CNS
  TGI: > 100 µM
SF-268 CNS
  TGI: > 100 µM
HCC-2998 colon
  TGI: > 100 µM
SF-539 CNS
  TGI: > 100 µM
UACC-62 melanoma
  TGI: > 100 µM
SK-MEL-5 melanoma
  TGI: > 100 µM
OVCAR-4 ovarian
  TGI: > 100 µM
A549 NSCLC
  TGI: > 100 µM
MDA-N
  TGI: > 100 µM
HOP-62 NSCLC
  TGI: > 100 µM
SR leukemia
  TGI: > 100 µM
SNB-75 CNS
  TGI: > 100 µM
OVCAR-8 ovarian
  TGI: > 100 µM
OVCAR-5 ovarian
  TGI: > 100 µM
MOLT-4 leukemia
  TGI: > 100 µM
MCF7 breast
  TGI: > 100 µM
SK-MEL-2 melanoma
  TGI: > 100 µM
A498 renal
  TGI: > 100 µM
MALME-3M melanoma
  TGI: > 100 µM
BT-549 breast
  TGI: > 100 µM
NCI-H23 lung
  TGI: > 100 µM
K-562 leukemia
  TGI: > 100 µM
EKVX NSCLC
  TGI: > 100 µM
IGROV1 ovarian
  TGI: > 100 µM
DU-145 prostate
  TGI: > 100 µM
UO-31 renal
  TGI: > 100 µM
PC-3 prostate
  TGI: > 100 µM
NCI-H460 lung
  TGI: > 100 µM
M14 melanoma
  TGI: > 100 µM
HCT-15 colon
  TGI: > 100 µM
HL-60(TB) leukemia
  TGI: > 100 µM
COLO 205 colon
  TGI: > 100 µM
HS 578T breast
  TGI: > 100 µM
MDA-MB-231 breast
  TGI: > 100 µM
NCI-H226 lung
  TGI: > 100 µM

## Cc1c(S(=O)(=O)/N=C(\NN)Nc2ccc(Cl)cc2)sc2ccc(Cl)cc12
SW-620 colon
  TGI: 71.2 µM
SNB-19 CNS
  TGI: 38 µM
T-47D breast
  TGI: 24 µM
CCRF-CEM leukemia
  TGI: > 100 µM
SF-295 CNS
  TGI: 33.6 µM
SN12C renal
  TGI: 30.9 µM
786-0 renal
  TGI: 31.5 µM
KM12 colon
  TGI: 30 µM
LOX IMVI melanoma
  TGI: 35.1 µM
ACHN renal
  TGI: 30 µM
UACC-257 melanoma
  TGI: 33.8 µM
OVCAR-3 ovarian
  TGI: 32 µM
CAKI-1 renal
  TGI: 34.4 µM
HCT-116 colon
  TGI: 26.4 µM
NCI-H522 lung
  TGI: 32.5 µM
RXF 393 renal
  TGI: 23.6 µM
SK-OV-3 ovarian
  TGI: 35.9 µM
SK-MEL-28 melanoma
  TGI: 44.1 µM
TK-10 renal
  TGI: 31.8 µM
HT29 colon
  TGI: 30.7 µM
NCI/ADR-RES ovarian
  TGI: 40.8 µM
U251 CNS
  TGI: 30.4 µM
SF-268 CNS
  TGI: 33.8 µM
SF-539 CNS
  TGI: 31.5 µM
UACC-62 melanoma
  TGI: 27.6 µM
SK-MEL-5 melanoma
  TGI: 33.4 µM
OVCAR-4 ovarian
  TGI: 30.1 µM
A549 NSCLC
  TGI: 31.6 µM
MDA-N
  TGI: 29.1 µM
HOP-62 NSCLC
  TGI: 36.3 µM
SR leukemia
  TGI: 65.1 µM
SNB-75 CNS
  TGI: 28.4 µM
OVCAR-8 ovarian
  TGI: 34.7 µM
OVCAR-5 ovarian
  TGI: 27.9 µM
MOLT-4 leukemia
  TGI: 59.8 µM
MCF7 breast
  TGI: 30.2 µM
SK-MEL-2 melanoma
  TGI: 30.5 µM
A498 renal
  TGI: 29.5 µM
MALME-3M melanoma
  TGI: 39.1 µM
BT-549 breast
  TGI: 30.9 µM
NCI-H23 lung
  TGI: 35.6 µM
K-562 leukemia
  TGI: > 100 µM
EKVX NSCLC
  TGI: 27.2 µM
IGROV1 ovarian
  TGI: 30.4 µM
DU-145 prostate
  TGI: 30.9 µM
UO-31 renal
  TGI: 33.1 µM
PC-3 prostate
  TGI: 29 µM
NCI-H460 lung
  TGI: 34.8 µM
M14 melanoma
  TGI: 34.8 µM
HCT-15 colon
  TGI: 34.4 µM
RPMI-8226 leukemia
  TGI: > 100 µM
HL-60(TB) leukemia
  TGI: 90.8 µM
COLO 205 colon
  TGI: 33.4 µM
HS 578T breast
  TGI: 59.1 µM
MDA-MB-231 breast
  TGI: 32 µM
HOP-92 NSCLC
  TGI: 31.4 µM
NCI-H226 lung
  TGI: 41.6 µM
